Results published in EP1247803A2, “Indolinone compounds suitable for modulation of protein kinases” (Sugen, Inc., priority 1996, dated 1998).

Each molecule was assayed against T1, EGFR (Homo sapiens, UniProt P00533) (assay: EGFR ELISA assay (in vitro kinase activity, EGFR captured from A431 cell lysate)).
T1 construct: Add 7 ug A431 cell lysate per well (EGFR source); endogenous in cells; host or cells: A431
T1 sequence (P00533 25-1210): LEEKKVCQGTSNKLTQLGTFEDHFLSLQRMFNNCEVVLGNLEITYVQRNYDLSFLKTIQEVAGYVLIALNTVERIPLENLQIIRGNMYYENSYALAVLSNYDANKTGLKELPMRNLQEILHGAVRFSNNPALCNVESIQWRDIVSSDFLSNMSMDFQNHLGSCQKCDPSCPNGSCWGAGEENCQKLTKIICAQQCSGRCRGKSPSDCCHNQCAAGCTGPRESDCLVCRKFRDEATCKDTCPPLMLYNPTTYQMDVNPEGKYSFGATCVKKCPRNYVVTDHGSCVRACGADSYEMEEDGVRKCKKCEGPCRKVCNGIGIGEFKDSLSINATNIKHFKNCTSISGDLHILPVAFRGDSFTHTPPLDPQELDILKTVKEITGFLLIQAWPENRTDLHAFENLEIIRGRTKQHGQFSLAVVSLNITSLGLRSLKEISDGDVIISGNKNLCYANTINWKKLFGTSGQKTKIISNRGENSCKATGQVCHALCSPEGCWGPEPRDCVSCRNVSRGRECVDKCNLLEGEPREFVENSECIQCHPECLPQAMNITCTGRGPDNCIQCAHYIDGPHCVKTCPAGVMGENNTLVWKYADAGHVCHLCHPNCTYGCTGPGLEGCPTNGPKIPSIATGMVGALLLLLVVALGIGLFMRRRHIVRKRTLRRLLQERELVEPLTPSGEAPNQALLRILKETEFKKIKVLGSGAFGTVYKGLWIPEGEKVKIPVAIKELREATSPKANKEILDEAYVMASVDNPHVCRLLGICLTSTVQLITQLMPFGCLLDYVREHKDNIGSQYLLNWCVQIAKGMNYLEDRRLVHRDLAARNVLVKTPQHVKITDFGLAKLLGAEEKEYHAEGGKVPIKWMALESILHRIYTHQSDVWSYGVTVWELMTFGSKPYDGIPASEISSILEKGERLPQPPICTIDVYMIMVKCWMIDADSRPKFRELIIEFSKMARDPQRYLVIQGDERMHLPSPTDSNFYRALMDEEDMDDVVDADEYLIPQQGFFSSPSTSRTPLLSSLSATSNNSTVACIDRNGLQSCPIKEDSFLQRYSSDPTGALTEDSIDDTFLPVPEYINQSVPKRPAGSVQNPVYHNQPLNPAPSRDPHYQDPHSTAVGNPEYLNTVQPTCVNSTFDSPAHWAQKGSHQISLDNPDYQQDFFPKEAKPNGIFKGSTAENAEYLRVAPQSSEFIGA
Assay type: biochemical
Parameters: concentration or dose not given beside the values
Method in brief: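 Receptor autophosphorylation was read by ELISA: anti-phosphotyrosine serum and an HRP-linked secondary with ABTS substrate, absorbance at 410 nm (reference 630 nm). The reaction ran 5 min with 3 µM ATP and 5 mM MnCl2 and was quenched by 20 mM EDTA. Compounds were first incubated 30 min with antibody-captured EGFR from A431 cell lysate.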
`CNS(=O)(=O)c1ccc2c(c1)C(=Cc1cccc(F)c1O)C(=O)N2` [10734/D08] was tested, and the “Biochem EGFR %Inhibition” value was -13.7%.
With `CNS(=O)(=O)c1ccc2c(c1)C(=Cc1ccc(O)c(Br)c1)C(=O)N2` [10734/D09] the “Biochem EGFR %Inhibition” value was 21.0%.
For `CNS(=O)(=O)c1ccc2c(c1)C(=Cc1ccc(C(C)(C)C)cc1)C(=O)N2` [10734/D10], the “Biochem EGFR %Inhibition” value was -4.4%.
For `CNS(=O)(=O)c1ccc2c(c1)C(=Cc1ccc(Br)s1)C(=O)N2` [10734/D11], the “Biochem EGFR %Inhibition” value was 14.6%.
For `CCOc1cccc(C=C2C(=O)Nc3ccc(S(=O)(=O)Nc4ccc(C(F)(F)F)cc4)cc32)c1O` [10734/E02], the “Biochem EGFR %Inhibition” value was -10.8%.
With `O=C1Nc2ccc(S(=O)(=O)Nc3ccc(C(F)(F)F)cc3)cc2C1=Cc1cc(Cl)cc(Cl)c1O` [10734/E03] the “Biochem EGFR %Inhibition” value was 55.0%.
